{"source": "patent US11229599B2", "about": "“Implant compositions for the unidirectional delivery of therapeutic compounds to the brain” (Board of Regents, the University of Texas System, priority 2015, dated 2022)", "assay": "Differential scanning calorimetry, physical state of APAP in glycerol behenate", "format": "physicochemical", "conditions": "FIG. 6; 5% APAP+95% glycerol behenate, physical blend and melt mix", "protocol": "Differential scanning calorimetry testing was performed using a TA Thermal Analyzer (Model DSC Q20, TA Instruments, New Castle, Del., US). The temperature was calibrated with an indium standard. Sample size was about 5 mg and a temperature ramp of 10° C. per minute was used. Universal Analysis 2000 data analysis software was used for data analysis. Inflection point method was used for the analysis of the glass transition temperature. The melting temperature is defined as the intersection of the extension of the baseline with the tangent at the inflection point of the curve."}
{"smiles": "CC(=O)Nc1ccc(O)cc1", "note": "[APAP, acetaminophen]", "values": [{"measurement": "physical state of APAP in glycerol behenate", "value": "dispersed as crystalline particles"}]}
